Experimental data taken from patent publication US10253002B2, “Compounds and methods of treating infections” (Neoculi Pty Ltd., priority 2013, dated 2019).

Experiments:
S. pneumoniae isolates = test: Disk diffusion susceptibility (CLSI/EUCAST), Example 5; type: cell-based, Streptococcus pneumoniae
Outline: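 Susceptibility to 12 antimicrobials was categorised (S/I/R) using CLSI breakpoints from zones of complete inhibition, read thrice to the nearest millimetre with the mode taken. Incubation was 16–24 h, 37 °C, 5% CO2.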

[1] = water containing 4% DMSO, following initial dilution in 100% DMSO; recent independent research; cited from earlier work
[2] = test system: lipid synthesis in S. aureus ATCC 29213; test: Macromolecular synthesis assay: lipid synthesis ([3H] glycerol); type: cell-based, Staphylococcus aureus; details: at the MIC
Experimental: Cells were grown at 35° C. overnight on Trypticase Soy agar. A colony from the plate was used to inoculate 10 ml of Mueller Hinton broth II (MHBII), and the culture was grown to early exponential growth phase (OD600==0.2 to 0.3) while incubating in a shaker at 35° C. and 200 rpm.
Bacterial cells were grown to early exponential growth phase in MHBII broth and added to 1.5 mL eppendorf tubes (in triplicate) containing various concentrations of test compound or control antibiotics as described above. Following a 5 min incubation at room temperature, [^3H] glycerol was added at 0.5 μCi per reaction.
Reactions were allowed to proceed at room temperature for 15 min and then stopped through the addition of 375 μL chloroform/methanol (1:2) followed by vortexing for 20 seconds after each addition. Chloroform (125 μL) was then added to each reaction, vortexed, followed by the addition of 125 μL dH2O and vortexing. Reactions were centrifuged at 13,000 rpm for 10 min, and then 150 μL of the organic phase was transferred to a scintillation vial and allowed to dry in a fume hood for at least 1 hr. Samples were then counted via liquid scintillation counting.

[3] = test system: non-VRE Enterococcus faecalis USA01; test: MBC (CLSI methodology), Example 8; type: cell-based; details: for NCL812 MBC test, growth on Sheep Blood Agar / Number of Bacteria Growing after 24 hours per ml of sample: E. faecalis (USA01)

In the case of CC1(C)S[C@@H]2[C@H](NC(=O)[C@H](N)c3ccccc3)C(=O)N2[C@H]1C(=O)O [Ampicillin], the “disk diffusion zone diameter” value (S. pneumoniae isolates; A66.1) is reported as 37 mm, the “disk diffusion zone diameter” value (S. pneumoniae isolates; D39) is reported as 37 mm and the “disk diffusion zone diameter” value (S. pneumoniae isolates; EF3030) is reported as 38 mm. The “disk diffusion zone diameter” value (S. pneumoniae isolates; L82016) was 41 mm, the “disk diffusion zone diameter” value (S. pneumoniae isolates; P9) was 33 mm and the “disk diffusion zone diameter” value (S. pneumoniae isolates; P21) was 40 mm. The “disk diffusion zone diameter” value (S. pneumoniae isolates; TIGR4) was 37 mm, the “disk diffusion zone diameter” value (S. pneumoniae isolates; WCH16) was 41 mm and the “disk diffusion zone diameter” value (S. pneumoniae isolates; WCH43) was 36 mm. The “disk diffusion zone diameter” value (S. pneumoniae isolates; WCH46) was 37 mm, the “disk diffusion zone diameter” value (S. pneumoniae isolates; WCH57) was 43 mm and the “disk diffusion zone diameter” value (S. pneumoniae isolates; WCH77) was 43 mm. The “disk diffusion zone diameter” value (S. pneumoniae isolates; WCH86) was 38 mm, the “disk diffusion zone diameter” value (S. pneumoniae isolates; WCH89) was 38 mm and the “disk diffusion zone diameter” value (S. pneumoniae isolates; WCH92) was 38 mm. The “disk diffusion zone diameter” value (S. pneumoniae isolates; WCH137) was 40 mm, the “disk diffusion zone diameter” value (S. pneumoniae isolates; WCH158) was 42 mm and the “disk diffusion zone diameter” value (S. pneumoniae isolates; WCH184) was 33 mm. For the same compound, the “disk diffusion zone diameter” value (S. pneumoniae isolates; WCH211) was 39 mm, the “disk diffusion zone diameter” value (S. pneumoniae isolates; WU2) was 38 mm and the “Resistance status to Ampicillin” value (S. pneumoniae isolates; isolate A66.1) was “Sensitive”. For the same compound, the “Resistance status to Ampicillin” value (S. pneumoniae isolates; isolate D39) was “Sensitive”, the “Resistance status to Ampicillin” value (S. pneumoniae isolates; isolate P21) was “Sensitive” and the “Resistance status to Ampicillin” value (S. pneumoniae isolates; isolate WCH57) was “Sensitive”. The “Resistance status to Ampicillin” value (S. pneumoniae isolates; isolate WCH158) was “Sensitive” and the “Resistance status to Ampicillin” value (S. pneumoniae isolates; isolate WU-2) was “Sensitive”.

For N=C(N/N=C/c1ccc(Cl)cc1)N/N=C/c1ccc(Cl)cc1 [NCL812, 1,3-bis[(E)-(4-chlorophenyl)methyleneamino]guanidine], the solubility [1] is given as “complete solubility”, the “inhibition of lipid synthesis” value [2] is given as “approximately 90%” and the “NCL812 MBC test, growth on Sheep Blood Agar” value (from here on “NCL812 MBC test, growth”) ([3]; 4 μg/ml) is given as “+”. The “Number of Bacteria Growing after 24 hours per ml of sample” value (“Number … per ml of sample” for short) ([3]; 4 μg/ml) was 488 CFU/ml, the “NCL812 MBC test, growth” value ([3]; 8 μg/ml) was “+” and the “NCL812 MBC test, growth” value ([3]; 16 μg/ml) was “+”. For the same compound, the “NCL812 MBC test, growth” value ([3]; 32 μg/ml) was “+”, the “Number … per ml of sample” value ([3]; 32 μg/ml) was 7 CFU/ml and the “NCL812 MBC test, growth” value ([3]; 64 μg/ml) was “+”. The “Number … per ml of sample” value ([3]; 64 μg/ml) was 1 CFU/ml, the “NCL812 MBC test, growth” value ([3]; […]) was “+” and the MBC test outcome ([3]; E. faecalis USA01) was “growth of bacteria was observed at all concentrations of NCL812 tested”.
